The values below come from ChEMBL document CHEMBL1146925 (Bioorg Med Chem Lett, 2006).

The target in one series is D(3) dopamine receptor (Homo sapiens, UniProt P35462). Kind of series: Binding affinity to cloned human dopamine D3 receptor.
The next series deals with D(2) dopamine receptor (Homo sapiens, UniProt P14416). Kind of series: Binding affinity to cloned human dopamine D2 receptor.
Series [1] can be described thus: Oral bioavailability in rat at 2 mg/kg, iv and 10 mg/kg, po. To be noted: in vivo. Format: ADME, organism-based.
Series [2] relates to Liver microsomes. Briefly: Metabolic stability in human liver microsomes. It is filed as ADME, Microsome. On the technique in general: Liver microsomes are a subcellular fraction often used to study metabolism.
For series [3], the system named is Liver microsomes. Kind of series: Metabolic stability in rat liver microsomes. It is filed as ADME, Microsome.
The species entered for the next series is Canis familiaris. Kind of series: Metabolic stability in dog liver microsomes. It is filed as ADME, Canis lupus familiaris.
Series [4] is described as follows: Permeability across Caco-2 cell membrane at pH 7.2. It is filed as ADME, cell-based. As to conditions: human, Caco-2, pH 7.2; read-out: permeability. A general note: Caco-2 monolayers are a common model of the intestinal barrier.
The nature of series [5]: Brain to plasma ratio in rat at 2 mg/kg, iv and 10 mg/kg, po.

Sequence of D(3) dopamine receptor (P35462 whole entry): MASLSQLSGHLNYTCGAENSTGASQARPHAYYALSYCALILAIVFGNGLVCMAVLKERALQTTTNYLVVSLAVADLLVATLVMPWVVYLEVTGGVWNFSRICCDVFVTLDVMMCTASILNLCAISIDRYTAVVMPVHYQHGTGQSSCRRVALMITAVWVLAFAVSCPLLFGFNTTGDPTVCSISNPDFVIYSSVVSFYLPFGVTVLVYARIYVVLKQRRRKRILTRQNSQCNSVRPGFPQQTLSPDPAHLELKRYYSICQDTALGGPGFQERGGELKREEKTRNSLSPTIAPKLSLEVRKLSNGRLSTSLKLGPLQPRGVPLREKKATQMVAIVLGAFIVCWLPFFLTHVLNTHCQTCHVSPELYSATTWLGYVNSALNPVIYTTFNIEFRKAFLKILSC
Sequence of D(2) dopamine receptor (P14416 whole entry): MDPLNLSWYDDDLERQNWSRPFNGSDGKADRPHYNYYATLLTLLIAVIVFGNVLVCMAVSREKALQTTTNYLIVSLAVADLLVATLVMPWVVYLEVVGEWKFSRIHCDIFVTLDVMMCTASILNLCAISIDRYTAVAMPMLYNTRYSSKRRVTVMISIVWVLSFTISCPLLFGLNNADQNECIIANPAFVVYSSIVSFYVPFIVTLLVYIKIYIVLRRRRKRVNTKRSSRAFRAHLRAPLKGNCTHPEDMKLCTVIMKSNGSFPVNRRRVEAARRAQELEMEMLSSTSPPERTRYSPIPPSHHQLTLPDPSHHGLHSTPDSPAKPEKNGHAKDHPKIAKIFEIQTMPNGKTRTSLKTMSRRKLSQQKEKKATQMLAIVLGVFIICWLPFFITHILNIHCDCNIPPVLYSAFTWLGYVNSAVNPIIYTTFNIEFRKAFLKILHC

In general, Ki refers to a measure of affinity in units of concentration, obtained from inhibition or displacement. Take `CC(C)(C)c1nc(N2CCN(CCCCn3ccc(O)cc3=O)CC2)cc(C(F)(F)F)n1`: the Ki at D(3) dopamine receptor stood at 1.1 nM; at D(2) dopamine receptor, 25.5 nM.
The like results for `CC(C)(C)c1nc(N2CCN(CCCCNC(=O)NCC3CCCCC3)CC2)cc(C(F)(F)F)n1` were, in that order, 6.7 nM and 159 nM.
In the same order, the values of `CCN(CC)C(=O)NCCCCN1CCN(c2cc(C(F)(F)F)nc(C(C)(C)C)n2)CC1` are 0.9 nM and 17.3 nM.
At D(2) dopamine receptor, `Cc1cccn(CCCCN2CCN(c3cc(C(F)(F)F)nc(C(C)(C)C)n3)CC2)c1=O` gave a Ki of 171 nM. In other words, the sub-micromolar range.
With `Cc1cccc(=O)n1CCCCN1CCN(c2cc(C(F)(F)F)nc(C(C)(C)C)n2)CC1`, the results for the Ki at D(3) dopamine receptor and at D(2) dopamine receptor were 12.1 nM and 195 nM, respectively.
As to `CC(C)(C)c1nc(N2CCN(CCCCn3cc(Cl)ccc3=O)CC2)cc(C(F)(F)F)n1`, the figures for the inhibition constant Ki on D(3) dopamine receptor and at D(2) dopamine receptor were 32.2 nM and 128 nM, respectively.
Regarding `CC(C)(C)NC(=O)NCCCCN1CCN(c2cc(C(F)(F)F)nc(C(C)(C)C)n2)CC1`, the results for the inhibitory constant (Ki) on D(3) dopamine receptor and at D(2) dopamine receptor were 4 nM and 65.8 nM, respectively.
`CC(C)(C)c1nc(N2CCN(CCCCNC(=O)Nc3ccccc3)CC2)cc(C(F)(F)F)n1`: the Ki at D(3) dopamine receptor was determined as 3.2 nM; on D(2) dopamine receptor, 59.1 nM.
In the same order, the values of `CC(C)(C)c1nc(N2CCN(CCCCn3cc(C(F)(F)F)ccc3=O)CC2)cc(C(F)(F)F)n1` are 35.7 nM and 399 nM.
As for `CC(C)(C)c1nc(N2CCN(CCCCn3ccc(C(F)(F)F)cc3=O)CC2)cc(C(F)(F)F)n1`, the Ki was 11.4 nM at D(3) dopamine receptor and 231 nM on D(2) dopamine receptor.
Take `CC(C)(C)c1nc(N2CCN(CCCCn3ccc(C(F)(F)F)nc3=O)CC2)cc(C(F)(F)F)n1`: on D(2) dopamine receptor, the inhibition constant (Ki) is 936 nM.
Consider `CC(C)(C)c1nc(N2CCN(CCCCn3cccc(C(F)(F)F)c3=O)CC2)cc(C(F)(F)F)n1`, for which the Ki was 9.3 nM at D(3) dopamine receptor and 409 nM at D(2) dopamine receptor.
The bioavailability is dose-corrected exposure relative to a reference, in per cent. On to `CC(C)(C)c1nc(N2CCN(CCCCNC(=O)CCc3ccccc3)CC2)cc(C(F)(F)F)n1`, for which the results for the Ki on D(3) dopamine receptor and on D(2) dopamine receptor were 1.6 nM and 244 nM, respectively. This compound also came in with a bioavailability in series [1] of less than 10%.
Compound `CC(C)(C)c1nc(N2CCN(CCCCn3ccc(-c4ccccc4)cc3=O)CC2)cc(C(F)(F)F)n1` showed a Ki at D(2) dopamine receptor of 527 nM.
As for `CCN(Cc1ccccc1)C(=O)NCCCCN1CCN(c2cc(C(F)(F)F)nc(C(C)(C)C)n2)CC1`, the Ki on D(3) dopamine receptor was determined as 8.3 nM; at D(2) dopamine receptor, 212 nM.
For the compound `CC(C)(C)c1nc(N2CCN(CCCCNC(=O)NCCc3ccccc3)CC2)cc(C(F)(F)F)n1`, the inhibition constant Ki on D(3) dopamine receptor was determined as 7.2 nM; on D(2) dopamine receptor, 234 nM.
The compound `COc1cccn(CCCCN2CCN(c3cc(C(F)(F)F)nc(C(C)(C)C)n3)CC2)c1=O` showed a Ki at D(2) dopamine receptor of 168 nM.
As for `CC(C)(C)CNC(=O)NCCCCN1CCN(c2cc(C(F)(F)F)nc(C(C)(C)C)n2)CC1`, the Ki on D(3) dopamine receptor was found to be 5.5 nM; at D(2) dopamine receptor, 91.3 nM.
In general, Kp refers to the ratio of the level in a tissue or fluid to that in plasma or blood. For the compound `Cc1ccn(CCCCN2CCN(c3cc(C(F)(F)F)nc(C(C)(C)C)n3)CC2)c(=O)c1`, the figures for the Stability with Liver microsomes [2], in the series on Liver microsomes [3] and in the series filed under Canis familiaris were greater than 97%, 74% and 59%, respectively. In addition, the Ki at D(2) dopamine receptor worked out at 62.6 nM. Further, the Papp in series [4] was determined as 5 ×10⁻⁶ cm/s. Besides, in series [5], the concentration ratio (Kp) is 3.7. The same compound gave a bioavailability in series [1] of 37%.
Consider `CC(C)(C)c1nc(N2CCN(CCCCNC(=O)NCc3ccccc3)CC2)cc(C(F)(F)F)n1`, for which the inhibition constant (Ki) on D(3) dopamine receptor was determined as 2.7 nM; at D(2) dopamine receptor it was 137 nM.
As for `CC(C)(C)c1nc(N2CCN(CCCCCC(=O)NCc3ccccc3)CC2)cc(C(F)(F)F)n1`, the figures for the inhibitory constant (Ki) at D(3) dopamine receptor and on D(2) dopamine receptor were 6.2 nM and 174 nM, respectively.
